For one molecule, mass density results are on record in the NIST ThermoML archive (doi:10.1016/j.jct.2010.09.009).

Numbers after ± are expanded uncertainties.

For orientation: mass density means mass per unit of volume.

The data set in a line: xn = mol fraction of the nth substance listed. Particulars: 101 kPa, Liquid, Vibrating tube method, x2 = 0.

For the molecule `O` [water] + CCC[N+](CCC)(CCC)CCC.[Br-], the mass density by setting is: (278.15 K) 999.97 ± 0.05 kg/m3; (283.15 K) 999.7 ± 0.05 kg/m3.
